Test results from the NIST ThermoML archive (doi:10.1021/acs.jced.8b00370).
± gives the expanded uncertainty stated by the source.

Assay: mn = molality of the nth substance listed, in mol/kg
Details: 100 kPa, Liquid; for speed of sound: Frequency=3 MHz, Single path-length method; for mass density: Vibrating tube method

OC[C@H]1O[C@@](CO)(O[C@H]2O[C@H](CO)[C@@H](O)[C@H](O)[C@H]2O)[C@@H](O)[C@@H]1O [D-sucrose] + O
Details	mass density, 288.15 K [kg/m3]	mass density, 298.15 K [kg/m3]	mass density, 308.15 K [kg/m3]	mass density, 318.15 K [kg/m3]	speed of sound, 288.15 K [m/s]	speed of sound, 298.15 K [m/s]	speed of sound, 308.15 K [m/s]	speed of sound, 318.15 K [m/s]
m1 = 0.1002	1012.01 ± 2	1009.81 ± 2	1006.68 ± 2	1002.77 ± 2	1476.3 ± 3	1506 ± 3	1528.2 ± 3	1544 ± 3
m1 = 0.2007	1024.37 ± 2	1022.04 ± 2	1018.8 ± 2	1014.82 ± 2	1486.2 ± 3	1515 ± 3	1536.5 ± 3	1551.6 ± 3
m1 = 0.3011	1036.19 ± 2	1033.73 ± 2	1030.39 ± 2	1026.34 ± 2	1496 ± 3	1524 ± 3	1544.7 ± 3	1559.1 ± 3
m1 = 0.4034	1047.72 ± 2	1045.13 ± 2	1041.69 ± 2	1037.58 ± 2	1506 ± 3	1533.2 ± 3	1553.1 ± 3	1566.7 ± 3
m1 = 0.4996	1058.12 ± 2	1055.43 ± 2	1051.89 ± 2	1047.73 ± 2	1515.3 ± 3	1541.7 ± 3	1561 ± 3	1574.3 ± 3
m1 = 0.6018	1068.73 ± 2	1065.92 ± 2	1062.29 ± 2	1058.07 ± 2	1525.2 ± 3	1550.6 ± 3	1569.3 ± 3	1581.7 ± 3
m1 = 0.7022	1078.71 ± 2	1075.81 ± 2	1072.09 ± 2	1067.82 ± 2	1534.9 ± 3	1559.3 ± 3	1577.2 ± 3	1589.3 ± 3
m1 = 0.7978	1087.87 ± 2	1084.86 ± 2	1081.07 ± 2	1076.72 ± 2	1543.9 ± 3	1567.4 ± 3	1584.8 ± 3	1596.1 ± 3
m1 = 0.8955	1096.86 ± 2	1093.77 ± 2	1089.9 ± 2	1085.49 ± 2	1552.9 ± 3	1575.6 ± 3	1592.3 ± 3	1603.2 ± 3
m1 = 0.9969	1105.83 ± 2	1102.65 ± 2	1098.71 ± 2	1094.23 ± 2	1562.2 ± 3	1583.8 ± 3	1600.1 ± 3	1611 ± 3
